The source made the active and inactive calls.
Columns and labels:
[1] = biological target: T1, Sentrin-specific protease 7 (Homo sapiens, UniProt Q9BQF6); format: functional;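 also: Luminescence-based dose-response confirmation of ultra-high-throughput screening hits, measuring inhibition of SENP7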
T1 sequence (Q9BQF6 whole entry): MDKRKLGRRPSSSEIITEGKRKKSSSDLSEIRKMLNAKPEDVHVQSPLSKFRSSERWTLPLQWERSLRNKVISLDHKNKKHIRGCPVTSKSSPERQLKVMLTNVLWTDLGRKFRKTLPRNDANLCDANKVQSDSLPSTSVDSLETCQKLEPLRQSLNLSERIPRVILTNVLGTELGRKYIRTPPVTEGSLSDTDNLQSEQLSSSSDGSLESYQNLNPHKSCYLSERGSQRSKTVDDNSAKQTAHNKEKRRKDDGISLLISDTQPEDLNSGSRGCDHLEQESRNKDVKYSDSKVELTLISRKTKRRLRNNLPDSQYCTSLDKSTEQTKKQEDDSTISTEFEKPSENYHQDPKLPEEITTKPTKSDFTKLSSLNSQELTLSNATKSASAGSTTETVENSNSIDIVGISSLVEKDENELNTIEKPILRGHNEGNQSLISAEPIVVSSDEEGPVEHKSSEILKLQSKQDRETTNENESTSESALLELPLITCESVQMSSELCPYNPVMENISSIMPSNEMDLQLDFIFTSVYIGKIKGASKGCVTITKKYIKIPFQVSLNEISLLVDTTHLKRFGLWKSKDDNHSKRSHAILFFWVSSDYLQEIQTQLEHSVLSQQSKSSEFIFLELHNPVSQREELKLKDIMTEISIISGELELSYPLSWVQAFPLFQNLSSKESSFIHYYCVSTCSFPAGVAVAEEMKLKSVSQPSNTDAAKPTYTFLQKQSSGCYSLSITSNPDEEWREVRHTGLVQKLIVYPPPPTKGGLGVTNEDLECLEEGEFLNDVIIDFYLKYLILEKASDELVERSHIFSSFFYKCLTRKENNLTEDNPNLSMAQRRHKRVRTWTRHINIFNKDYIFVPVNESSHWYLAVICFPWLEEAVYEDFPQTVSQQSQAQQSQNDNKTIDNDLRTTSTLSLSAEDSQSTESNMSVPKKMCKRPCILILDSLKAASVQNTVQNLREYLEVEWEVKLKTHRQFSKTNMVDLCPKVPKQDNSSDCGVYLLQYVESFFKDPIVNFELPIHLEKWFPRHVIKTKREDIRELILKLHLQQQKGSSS

[2] = biological target: T2, Hexokinase HKDC1 (Homo sapiens, UniProt Q2TB90); assay: activation of HKDC1 glucose phosphorylation – biochemical, W721R variant, dose response (AID 504730); format: functional
T2 sequence (Q2TB90 whole entry): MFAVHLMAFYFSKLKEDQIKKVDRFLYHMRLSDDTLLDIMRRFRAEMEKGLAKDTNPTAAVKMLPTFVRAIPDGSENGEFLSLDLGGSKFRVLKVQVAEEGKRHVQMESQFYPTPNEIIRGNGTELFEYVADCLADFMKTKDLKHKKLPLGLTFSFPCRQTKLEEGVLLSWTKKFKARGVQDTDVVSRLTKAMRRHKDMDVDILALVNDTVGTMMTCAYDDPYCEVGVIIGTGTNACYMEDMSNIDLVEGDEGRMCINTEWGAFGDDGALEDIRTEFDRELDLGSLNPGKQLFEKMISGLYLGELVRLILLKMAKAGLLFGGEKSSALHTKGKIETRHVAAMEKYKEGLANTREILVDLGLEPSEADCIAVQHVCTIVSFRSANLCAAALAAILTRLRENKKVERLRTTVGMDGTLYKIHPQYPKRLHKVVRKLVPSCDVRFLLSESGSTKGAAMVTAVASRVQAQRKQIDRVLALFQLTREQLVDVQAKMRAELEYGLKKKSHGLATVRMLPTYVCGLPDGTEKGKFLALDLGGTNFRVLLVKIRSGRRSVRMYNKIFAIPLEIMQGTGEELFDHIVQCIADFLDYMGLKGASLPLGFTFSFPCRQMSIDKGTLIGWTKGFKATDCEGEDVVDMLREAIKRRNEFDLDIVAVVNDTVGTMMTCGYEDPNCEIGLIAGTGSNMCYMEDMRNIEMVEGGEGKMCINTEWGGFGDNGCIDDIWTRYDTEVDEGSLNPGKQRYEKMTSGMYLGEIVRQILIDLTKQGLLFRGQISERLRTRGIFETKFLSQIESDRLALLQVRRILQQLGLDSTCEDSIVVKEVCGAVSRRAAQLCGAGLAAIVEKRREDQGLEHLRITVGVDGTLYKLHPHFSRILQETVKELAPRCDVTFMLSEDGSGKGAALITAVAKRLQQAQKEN

[3] = biological target: Hexokinase-1 (Homo sapiens, UniProt P19367); assay: HK1 enzyme activation by HKDC1 hits – biochemical, selectivity assay for HKDC1 activator project, dose response (AID 504762); format: functional
[4] = Fluorescence-based cell-based high throughput dose response assay for inhibitors of the interaction of nucleotide-binding oligomerization domain containing 2 (NOD2) and the receptor-interacting serine-threonine kinase 2 (RIPK2).; format: functional, Homo sapiens; conditions: Homo sapiens
[5] = biological target: T3, Sphingosine 1-phosphate receptor 4 (Homo sapiens, UniProt O95977); assay: Late stage fluorescence dose response cell-based screening assay for antagonists of the Sphingosine 1-Phosphate Receptor 4 (S1P4). [Related pubchem assays: 1524 (Confirmation screen (S1P4 antagonists).), 1510 (Primary screen (S1P4 antagonists).), 1853 (Summary AID (S1P4 antagonists).), 1692 (Dose response screen (S1P4 antagonists).)]; format: functional
T3 sequence (O95977 whole entry): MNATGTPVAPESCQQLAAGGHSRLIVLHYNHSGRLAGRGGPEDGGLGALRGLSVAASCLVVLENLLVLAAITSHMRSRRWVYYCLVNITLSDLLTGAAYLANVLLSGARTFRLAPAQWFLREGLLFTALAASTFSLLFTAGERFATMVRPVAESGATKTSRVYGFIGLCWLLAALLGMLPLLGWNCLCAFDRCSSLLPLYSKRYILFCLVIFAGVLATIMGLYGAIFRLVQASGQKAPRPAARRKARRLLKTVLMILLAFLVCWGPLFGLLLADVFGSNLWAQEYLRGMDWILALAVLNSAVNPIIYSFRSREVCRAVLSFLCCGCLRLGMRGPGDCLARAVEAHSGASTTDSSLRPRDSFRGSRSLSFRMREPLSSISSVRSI

Chain of Hexokinase-1 (P19367 whole entry, the tested form may be a part): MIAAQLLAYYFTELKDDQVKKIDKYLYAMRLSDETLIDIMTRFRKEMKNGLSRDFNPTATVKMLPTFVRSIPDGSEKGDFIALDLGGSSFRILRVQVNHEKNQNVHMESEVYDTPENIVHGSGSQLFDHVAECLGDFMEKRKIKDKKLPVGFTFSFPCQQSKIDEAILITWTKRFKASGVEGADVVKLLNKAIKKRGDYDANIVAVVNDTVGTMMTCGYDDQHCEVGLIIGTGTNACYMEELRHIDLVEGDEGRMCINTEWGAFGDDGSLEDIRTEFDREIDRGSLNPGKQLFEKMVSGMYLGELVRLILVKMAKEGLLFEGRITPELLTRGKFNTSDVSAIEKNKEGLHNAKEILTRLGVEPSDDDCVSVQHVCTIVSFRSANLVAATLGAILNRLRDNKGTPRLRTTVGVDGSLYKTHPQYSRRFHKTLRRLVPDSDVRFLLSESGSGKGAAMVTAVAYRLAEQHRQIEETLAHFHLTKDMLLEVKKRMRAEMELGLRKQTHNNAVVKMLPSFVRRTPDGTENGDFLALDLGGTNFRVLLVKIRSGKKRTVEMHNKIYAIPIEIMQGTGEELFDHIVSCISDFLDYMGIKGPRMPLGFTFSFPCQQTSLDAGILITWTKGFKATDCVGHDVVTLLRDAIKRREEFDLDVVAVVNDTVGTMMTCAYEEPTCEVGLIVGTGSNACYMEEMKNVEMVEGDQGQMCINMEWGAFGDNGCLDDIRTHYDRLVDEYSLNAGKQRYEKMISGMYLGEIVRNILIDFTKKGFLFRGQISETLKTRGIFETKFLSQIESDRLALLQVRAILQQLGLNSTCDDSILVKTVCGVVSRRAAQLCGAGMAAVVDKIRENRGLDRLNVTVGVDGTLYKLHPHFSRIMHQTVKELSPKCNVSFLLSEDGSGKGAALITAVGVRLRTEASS

IC50 [1]	EC50 [2]	EC50 [3]	Compound	IC50 [4]	IC50 [5]
25.4 µM (active)	> 80 µM (inactive)	37.9 µM (inactive)	O=C1NC(=S)N/C1=C/c1cc2c(cc1[N+](=O)[O-])OCO2		
			Cc1ccc(NC(=O)C2=C(c3ccccc3)S(=O)(=O)CCS2(=O)=O)cc1	2.73 µM (active)	3.72 µM (not active)

Source: ChEMBL document CHEMBL1201862, “PubChem BioAssay data set” (2004)
